{"source": "patent US8536208B2", "about": "“Antifungal composition” (Basilea Pharmaceutica AG, priority 2007, dated 2013)", "assay": "Single dose bioavailability study on fasted subjects", "details": "human, in vivo, Galenical formulation Example 4 (composition 2.3)", "description": "A single dose bioavailability study is conducted on N fasted subjects using the composition of this Example (N=7, dose of compound I-A 433.3 mg corresponding to 400 mg free base of formula I-B), and the same amount in powder form filled into hard capsules, (N=6). BAL8557, a water-soluble prodrug of the compound of formula I-B according to EP-A-1 280 795, is used as a standard (capsule comprising BAL 8557 in powder form in an amount corresponding to 400 mg free base of formula I-B; N=3).", "key": {"[1]": {"details": "single oral dose 433.3 mg I-A (400 mg free base I-B), N=7"}}}
{"smiles": "C[C@@H](c1nc(-c2ccc(C#N)cc2)cs1)[C@](O)(Cn1cncn1)c1cc(F)ccc1F.Cl", "note": "[Compound I-A]", "values": [{"measurement": "bioavailability", "setting": "433.3 mg, single oral dose equal to 400 mg free base I-B, BAL 8557 as standard, read-out: Frel (relative bioavailability)", "result": 90, "unit": "%"}, {"measurement": "Cmax", "setting": "[1]", "result": 4410, "unit": "ng/mL"}, {"measurement": "Tmax", "setting": "[1]", "result": 1.5, "unit": "h"}, {"measurement": "half-life", "setting": "[1]", "result": 88, "unit": "h"}, {"measurement": "AUC", "setting": "single oral dose 433.3 mg I-A (400 mg free base I-B), N=7, read-out: AUCinfinite", "result": 193, "unit": "µg·h/mL"}]}
